Source: patent US12714712B2, “Combination therapy with a mutant IDH inhibitor and a Bcl-2 inhibitor” (Eli Lilly and Company, priority 2020, dated 2026)
Where “and” joins values, the source holds several entries; their conditions need not be identical. Identical values can stand only once. Blank lines part the entries; values can stand above or below the compound they belong to.

Columns and labels:
[1] = target: T1, mutant IDH1 (IDH1 R132H) in MOLM14 R132 cell line construct (Homo sapiens, UniProt O75874, R132H); assay: 2-HG Inhibition Assay (LC-MS of cell culture supernatant); format: cell-based; settings: for 2-HG: 4 days, MOLM14 R132, doxycycline-induced, culture media
T1 construct: FLAG; host or cells: MOLM14 human leukemia cells (lentiviral, doxycycline-induced)
Description: MOLM14 wild-type human leukemia cells and a MOLM14 R132 construct cell line are generated by lentiviral transfection of MOLM14 cells using IDH1 WT (doxycycline inducible) pSLIK-IDH1-FLAG (Addgene Plasmid #66802) and IDH1 R132H (doxycycline inducible) pSLIK-IDH1-R132H-FLAG (Addgene Plasmid #66803), and is kindly provided by Dr. Jean-Emmanuel Sarry (Centre de Recherches en Cancérologie de Toulouse, UMR1037, Inserm, Université de Toulouse 3 Paul Sabatier, Toulouse, France; bioRxiv 749580; doi.org/10.1101/749580). MOLM14-WT and MOLM14-R132 mutant cells are seeded in 6 well plates (lx 10^6/well) in 5 ml of complete RPMI medium containing 10% FBS (Sigma) and 1× Pen/Strep (Sigma). After induction with 2 μg/ml doxycycline, the cells are incubated in 37 degree for 4 days.
Cells are seeded in 12 wells plates (100,000 cells/well) in 1 mL, in triplicate. Cells are treated with 2 μg/ml doxycycline to induce IDH1 expression, then treated with DMSO, 0.1 or 1 μM Compound A, and incubated at 37 degrees C. for 4 days.
65 μL of media are collected and centrifuged, and 60 μL of the supernatant media are collected and frozen at −80 degrees C.
LCMS 2-HG Metabolite Analysis.
The effects of IDH1 inhibition on the concentrations of total 2-HG and (α-KG) are determined by liquid chromatography-mass spectrometry (LC-MS) analysis of cell culture supernatant. Calibration curves are prepared by spiking 2-HG and α-KG into cell culture media. The method utilizes derivatization with O-benzylhydroxylamine prior to analysis by LC-MS. Ten microliters of each standard or sample is placed into a deep-well 96-well plate and combined with 100 μL of internal standard solution containing 10 μM d5-2-hydroxyglutarate and 10 μM d6-α-KG. 50 μL of 1 M O-benzylhydroxylamine in pyridine buffer (8.6% pyridine, pH 5) and 50 μL of 1 M N-(3-dimethylaminopropyl)-N-ethylcarbodiimide hydrochloride (EDC) in pyridine buffer is added to each sample. The derivatization reaction proceeds at room temperature for one hour. […] Analyte concentrations for the unknowns are back-calculated from the calibration curves.

[2] = system: MOLM14 wild-type and MOLM14 R132 cells; assay: Cell Viability Assay (Annexin V/DAPI flow cytometry: % viable cells and % apoptosis); format: cell-based, human
Experimental: MOLM14 wild-type and MOLM14 R132 cells are treated with 2 μg/ml doxycycline to induce expression of IDH1 WT and IDH1-R132H and then incubated at 37 degrees C. for 4 days. Cells are seeded in 4 (12 wells) plates at 10,000 cells/well in 1 mL growth media containing 2 ug/mL doxycycline.
Cells are treated with: DMSO (in triplicate), or with Compound A at 0, 125, 250, 500, 1000 nM (each in triplicate) as described in the following: After the initial induction described above, 0.5 mL media with 1× of doxycycline plus 1× Compound A or DMSO is added and incubated for 3 days. After the 3 days, another 0.5 mL aliquot of fresh media with 1×doxycyline plus 1×compound A or DMSO is added and incubated for 3 further days. Venetoclax (0, 25, 50, 100, 200 nM) is then added as a single agent or in combination with 1× Compound A. Two days later, cells are collected in flow cytometry filtered tubes, and processed for flow cytometry. Cells are washed with Annexin V Binding Buffer (ABB, 2 mL) [1 M Hepes buffer (10 mL), 5 M NaCl (28 mL), 1 M CaCl2 (5 mL), H2O (957 mL)], and then centrifuged at 1500 rpm for 5 min. Cells are stained with ABB (50 μL), with APC Annexin V Antibody (1 μL, Biolegend cat #640941), and kept in the dark for 20 minutes. Cells are washed with ABB (2 mL) and centrifuged at 1500 rpm for 5 min. DAPI (Invitrogen cat #D3571) and counting beads (Invitrogen cat #C36950) are added in Annexin V binding buffer [DAPI (5 μL, 2 μg/mL)+counting beads (5 μL (520,000 beads per 50 μL))+ABB (150 μL)] in a total volume 160 μL/tube, then analyzed with a Gallios flow cytometer (Beckman Coulter). Cells collection is stopped when counting beads reach 250 beads per sample. Kalusa software is used for analysis. The percentage of gated Annexin V-negative/DAPI-negative cells constitutes % viable cells, while the percentage of Annexin V-positive cells constitutes % apoptosis.

AML-PDX = AML-PDX Model; format: in vivo, NSG mice; settings: peripheral blood, following 6 weeks of treatment, individual animals
Experimental: Male NSG mice (6-9 weeks of age, The Jackson Laboratory) are irradiated with 250 cGy and on the next day, injected intravenously with AML-PDX (1×10^6 cells/100 μL). Peripheral blood is collected via the retro-orbital route and processed to measure hCD45+ cells by flow cytometry to confirm the establishment of leukemia. When leukemia engraftment reaches more than 1%, mice are randomly grouped for treatment with vehicle, Compound A (10 mg/kg, daily oral gavage), venetoclax (50 mg/kg, oral gavage for 2 weeks on and 1 week off (2 cycles)) or the combination of venetoclax (50 mg/kg, oral gavage for 2 weeks on and 1 week off (2 cycles)) and Compound A (10 mg/kg, daily oral gavage). Additional dosing may be employed beyond the 2 cycles stated above based on the assessment of the level of residual disease remaining following 6 weeks of treatment. Peripheral blood is collected once every two weeks via the retro-orbital route and processed to measure leukemia burden (% hCD33+/hCD45+ cells) by flow cytometry, and to measure differentiation (% hCD14+ cells percentage out of total hCD45+ cells)). Sixty-five μL stain/wash buffer (5% heat inactivated (HI)-FBS in DPBS) is added per tube, mixed up and down 3 to 4 times by pipette, and 100 μL of the blood suspension is transferred to 5 mL polypropylene tubes. The stains are added according to the manufacturer's instructions (anti-human CD33-APC (BD Biosciences cat #551378), anti-human CD14-PE-Cy7 (BD Biosciences cat #557742), anti-human CD45-APC-Cy7 (BD Biosciences cat #557833). The samples are incubated for 30 minutes at room temperature, protected from light. After the incubation, 1.5 mL 1× BD Lyse/Fix buffer (37° C., (BD #558049)) is added to each sample and incubated for 12 minutes at room temperature. The tubes are then centrifuged at 1500 RPMI for 5 minutes. BD Lyse/Fix solution is aspirated and the cell pellet washed with stain/wash buffer 2 times. Fixed cells are then resuspended in 200 μL stain/wash buffer then transferred to filtered flow tubes. Samples are analyzed on a Gallios Flow cytometer (Beckman, Texas) using standard flow cytometry principles and technique. Population gating and data analysis of percent population are performed in the Flow Jo software.

mutant IDH1 = settings: from WO 2018/111707 A1; cited from earlier work
[3] = Compound A 10 mg/kg daily oral gavage, 10 mg/kg
[4] = venetoclax 50 mg/kg oral gavage, 2 weeks on and 1 week off (2 cycles)

T1 sequence (O75874 whole entry R132H): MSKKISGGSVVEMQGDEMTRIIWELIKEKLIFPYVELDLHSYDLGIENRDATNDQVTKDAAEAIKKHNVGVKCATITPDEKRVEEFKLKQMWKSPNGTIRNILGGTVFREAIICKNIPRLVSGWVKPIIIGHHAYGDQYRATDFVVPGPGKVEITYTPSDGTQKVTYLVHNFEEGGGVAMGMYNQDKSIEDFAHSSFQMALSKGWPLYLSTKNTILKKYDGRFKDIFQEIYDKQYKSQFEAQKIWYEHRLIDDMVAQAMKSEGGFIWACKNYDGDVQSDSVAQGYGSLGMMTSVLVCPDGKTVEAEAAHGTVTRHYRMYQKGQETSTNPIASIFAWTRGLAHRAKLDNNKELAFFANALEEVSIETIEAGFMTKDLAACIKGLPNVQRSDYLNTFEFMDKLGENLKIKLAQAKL

2-HG ([1]; 0.1 μM Compound A): 3.369 µM and 3.044 µM and 3.488 µM | 2-HG ([1]; 1 μM Compound A): 3.578 µM and 3.199 µM and 3.378 µM | 2-HG production by mutant IDH1 (in words) ([1]; MOLM14 R132 cell line construct): inhibits 2-HG production
SMILES: C=CC(=O)N1CCN([C@@H](CC2CC2)c2ccc([C@H](C)Nc3ncc4c(n3)N(CC)C(=O)OC4)cc2)CC1 [Compound A, 7-[[(1S)-1-[4-[(1S)-2-cyclopropyl-1-(4-prop-2-enoylpiperazin-1-yl)ethyl]phenyl]ethyl]amino]-1-ethyl-4H-pyrimido[4,5-d][1,3]oxazin-2-one]
% Annexin V + as a measure of apoptosis ([2]; Compound A 125 nM alone): 5.56% and 4.3% and 5.12% | % Cell Viability ([2]; Compound A 125 nM alone): 95.14% and 94.27% | % Annexin V + as a measure of apoptosis ([2]; Compound A 250 nM alone): 6.18% and 4.95% and 4.92% | % Cell Viability ([2]; Compound A 250 nM alone): 94.27% and 94.41% | % Annexin V + as a measure of apoptosis ([2]; Compound A 500 nM alone): 5.82% and 5.23% and 5.19% | % Cell Viability ([2]; Compound A 500 nM alone): 93.92% and 94.15% | % Annexin V + as a measure of apoptosis ([2]; Compound A 1000 nM alone): 7.2% and 5.51% and 7.52% | % Cell Viability ([2]; Compound A 1000 nM alone): 93.98% and 91.68% | viability at 0.125 µM ([2]; Homo sapiens, MOLM-14, Compound A 125 nM alone): 93.7% | viability at 0.25 µM ([2]; Homo sapiens, MOLM-14, Compound A 250 nM alone): 93.3% | viability at 0.5 µM ([2]; Homo sapiens, MOLM-14, Compound A 500 nM alone): 93.7% | viability at 1 µM ([2]; Homo sapiens, MOLM-14, Compound A 1000 nM alone): 92% | AML cell differentiation (% hCD14+ of hCD45+) (AML-PDX; [3]): 44.1% and 58.3% and 63.6% and 64.1% and 51.7% and 58.9% | Leukemic burden (% hCD33+hCD45+ of total white cells) (AML-PDX; [3]): 87.8% and 88.5% and 51.5% and 65.6% and 85.1% and 81.9% | 2-HG production (in words) (mutant IDH1): selectively inhibits 2-HG production | α-KG levels (in words) (mutant IDH1): without affecting α—KG levels

SMILES: CC1(C)CCC(CN2CCN(c3ccc(C(=O)NS(=O)(=O)c4ccc(NCC5CCOCC5)c([N+](=O)[O-])c4)c(Oc4cnc5[nH]ccc5c4)c3)CC2)=C(c2ccc(Cl)cc2)C1 [Venetoclax, venetoclax, reference compound]
viability at 0.025 µM ([2]; Homo sapiens, MOLM-14, 48 h, venetoclax 25 nM alone, 2 days): 76.1% | viability at 0.05 µM ([2]; Homo sapiens, MOLM-14, 48 h, venetoclax 50 nM alone, 2 days): 76.9% | viability at 0.1 µM ([2]; Homo sapiens, MOLM-14, 48 h, venetoclax 100 nM alone, 2 days): 70.4% | viability at 0.2 µM ([2]; Homo sapiens, MOLM-14, 48 h, venetoclax 200 nM alone, 2 days): 55.2% | % Annexin V + as a measure of apoptosis ([2]; venetoclax 25 nM alone): 19.1% and 15.93% and 19.16% | % Cell Viability ([2]; venetoclax 25 nM alone, 2 days): 81.78% and 77.84% | % Annexin V + as a measure of apoptosis ([2]; venetoclax 50 nM alone): 18.22% and 16.34% and 17.15% | % Cell Viability ([2]; venetoclax 50 nM alone, 2 days): 80.63% and 78.78% | % Annexin V + as a measure of apoptosis ([2]; venetoclax 100 nM alone): 24.62% and 18.98% and 22.98% | % Cell Viability ([2]; venetoclax 100 nM alone, 2 days): 73.78% | % Annexin V + as a measure of apoptosis ([2]; venetoclax 200 nM alone): 41.67% and 35.73% and 41.22% | % Cell Viability ([2]; venetoclax 200 nM alone, 2 days): 59.27% and 56.31% | AML cell differentiation (% hCD14+ of hCD45+) (AML-PDX; [4]): 37.7% and 26% and 40.7% and 32.6% | Leukemic burden (% hCD33+hCD45+ of total white cells) (AML-PDX; [4]): 10.1% and 63% and 14.1% and 54.9%
